Assay results reported in US10561703B2, “Method of modulating sex hormone levels using a sex hormone secretion modulator” (GEMVAX & KAEL CO., LTD., priority 2013, dated 2020).

Tested on: LH
Assay: LH level in blood (serum CLIA) after repeated sc PEP-1
Format: in vivo, SD rats
Description: PEP-1 (peptide of SEQ ID NO: 1), lyophilized white powder, obtained according to the method mentioned in example 1 was dissolved in 0.9% of saline, considering the correction factor of PEP-1 (purity: 94.13%, content: 92.36%, correction factor: 1.15). 50 mg/mL stock solution was further diluted into 20 mg/mL, 2 mg/mL, and 1 mg/mL with 0.9% saline, and stored at 4° C. for a week until the use.
The purpose of this example is to confirm the change of sexual hormones in blood from SD rats with 7 days repeated daily administration of SEQ ID NO: 1 peptide, PEP-1. This experiment followed the Ethics Regulation of Animal Test by KAMSI Inc. (Korea Animal Medical Science Institute). In addition, this experiment, Non-GLP experiment, referred to the MFDS (Ministry of Food and Drug Safety) notification; Agent 2013-40 (5th April 2013), Principles of Good Laboratory Practice (1997).
SPF Rats (Crlj:CD(SD)) were purchased from ORIENTBio Inc. (Mokdong-ri, Buk-myeon, Gapyeong-gun, Gyeonggi-do, Republic of Korea). 75 male (6.5 weeks old and 190˜210 g) and 75 female (6.5 weeks old and 160˜180 g) rats were monitored for 4 days, and 64 of male and female rats (each) were selected for the experiment. Raising condition is as follows; 23±3° C. of temperature, […] of relative humidity, 10˜20 times/hr of number of air changes, 12 hours (8 a.m.˜8 p.m.) of lighting with 150˜300 Lux of intensity.
64 male and female […] (mentioned above) were divided into 8 groups. Administration regimen, for example, drugs, routes, dosages, and volumes were as follows:
The detailed administration regimen is as follows; once a day, twice a day and twice a week in each experimental group. Injection initiated at 10 a.m. every day, and each rat was injected at one minute intervals. Rats in Group 9, 10, 13 and 14 were injected twice a week. Administration of high dose test agent preceded that of low dose. The volume of injection was calculated using recently measured weight of rats, and it was 5 mL/kg. Subcutaneous injection was performed as follows; assistant tilted the back of rat upward, and experimenter sterilized the back of rat with 70% alcohol, followed by subcutaneous injection of test agent with 26 G syringe.
1.4 mL of blood sample (0.7 mL of serum) was collected after measurement of weight (Day 0). Next day (1 Day), 1.4 mL of blood sample (0.7 mL of serum) was collected twice after injection of test agent (4 hrs and 8 hrs after administration of test agent). For next 6 days (Day 2˜Day 7), 1.4 mL of blood was extracted once everyday (4 hours after injection of test agent). Dose and volume of test agent of each group followed the Table 3, and injection time zone was same every day. Blood was extracted from the jugular vein, and left at room temperature for 30 minutes. Serum was separated using centrifugation (10,000 rpm for 5 minutes), and stored at −70±5° C. in Deep freezer until the use. Blood extraction from each subject was done in the same time zone every day.
A CLIA (Chemi-Luminescence Immune Assay) Kit was used to analyze Testosterone, Estradiol E2, FSH (Follicle stimulating hormone), and LH (Luteinizing hormone). Analysis was completed within 48 hrs after blood extraction (Laboratory Medicine Department, Chung-Ang University Hospital), and detailed method is as follows; One-way ANOVA was used to verify the comparison between the vehicle and PEP-1, and between different doses of PEP-1. For further analysis, Duncan test was used as parametric test and Dunnett's test as non-parametric test. p<0.05 represents the statistical significance, and all statistical analysis was carried out with SPSS 10.1.
LH was analyzed using the samples prepared from example 2. 50 μL of serum was used for analysis. Fundamentals of analysis is Two-site sandwich immunoassay based on direct chemi-luminescent. As mentioned in example 2, CLIA (Chemi-luminescence immune assay) Kit was used, following the manufacture's protocol.

EARPALLTSRLRFIPK (listed as Homo sapiens) [PEP-1, hormone secretion modulator / GnRH analog]
0.2 mIU/mL: LH level in blood (G15 Male 250 mg/kg sc 1/day x7, 3 days) | LH level in blood (G15 Male 250 mg/kg sc 1/day x7, 5 days) | LH level in blood (G16 Female 250 mg/kg sc 1/day x7, 8 hr)
0.1 mIU/mL: LH level in blood (G11 Male 100 mg/kg sc 1/day x7, pre)
0.28 mIU/mL: LH level in blood (G8 Female 10 mg/kg sc 2/day x4, 3 days) | LH level in blood (G8 Female 10 mg/kg sc 2/day x4, 7 days) | LH level in blood (G11 Male 100 mg/kg sc 1/day x7, 2 days) | LH level in blood (G12 Female 100 mg/kg sc 1/day x7, 6 days) | LH level in blood (G15 Male 250 mg/kg sc 1/day x7, 2 days) | LH level in blood (G16 Female 250 mg/kg sc 1/day x7, 6 days) | LH level in blood (G16 Female 250 mg/kg sc 1/day x7, 7 days)
0.19 mIU/mL: LH level in blood (G4 Female 5 mg/kg sc 1/day x7, 2 days) | LH level in blood (G6 Female 10 mg/kg sc 1/day x7, 3 days) | LH level in blood (G11 Male 100 mg/kg sc 1/day x7, 5 days) | LH level in blood (G15 Male 250 mg/kg sc 1/day x7, 4 days)
0.42 mIU/mL: LH level in blood (G16 Female 250 mg/kg sc 1/day x7, 4 hr)
0.16 mIU/mL: LH level in blood (G4 Female 5 mg/kg sc 1/day x7, 4 hr) | LH level in blood (G4 Female 5 mg/kg sc 1/day x7, 7 days) | LH level in blood (G6 Female 10 mg/kg sc 1/day x7, 7 days)
0.67 mIU/mL: LH level in blood (G9 Male 10 mg/kg sc 2/week x2 (days 1,7), 7 days)
0.3 mIU/mL: LH level in blood (G12 Female 100 mg/kg sc 1/day x7, 4 hr)
0.11 mIU/mL: LH level in blood (G9 Male 10 mg/kg sc 2/week x2 (days 1,7), 6 days) | LH level in blood (G13 Male 100 mg/kg sc 2/week x2 (days 1,7), 2 days) | LH level in blood (G13 Male 100 mg/kg sc 2/week x2 (days 1,7), 3 days) | LH level in blood (G13 Male 100 mg/kg sc 2/week x2 (days 1,7), 6 days) | LH level in blood (G14 Female 100 mg/kg sc 2/week x2 (days 1,7), 6 days) | LH level in blood (G16 Female 250 mg/kg sc 1/day x7, pre)
0.23 mIU/mL: LH level in blood (G8 Female 10 mg/kg sc 2/day x4, 5 days) | LH level in blood (G10 Female 10 mg/kg sc 2/week x2 (days 1,7), 8 hr) | LH level in blood (G11 Male 100 mg/kg sc 1/day x7, 3 days) | LH level in blood (G12 Female 100 mg/kg sc 1/day x7, 4 days) | LH level in blood (G12 Female 100 mg/kg sc 1/day x7, 5 days) | LH level in blood (G15 Male 250 mg/kg sc 1/day x7, 7 days) | LH level in blood (G16 Female 250 mg/kg sc 1/day x7, 2 days) | LH level in blood (G16 Female 250 mg/kg sc 1/day x7, 4 days)
0.22 mIU/mL: LH level in blood (G6 Female 10 mg/kg sc 1/day x7, 2 days) | LH level in blood (G8 Female 10 mg/kg sc 2/day x4, 4 hr) | LH level in blood (G12 Female 100 mg/kg sc 1/day x7, 2 days) | LH level in blood (G12 Female 100 mg/kg sc 1/day x7, 3 days) | LH level in blood (G16 Female 250 mg/kg sc 1/day x7, 3 days)
0.13 mIU/mL: LH level in blood (G3 Male 5 mg/kg sc 1/day x7, 7 days) | LH level in blood (G4 Female 5 mg/kg sc 1/day x7, 3 days) | LH level in blood (G4 Female 5 mg/kg sc 1/day x7, 4 days) | LH level in blood (G8 Female 10 mg/kg sc 2/day x4, 4 days) | LH level in blood (G8 Female 10 mg/kg sc 2/day x4, pre) | LH level in blood (G9 Male 10 mg/kg sc 2/week x2 (days 1,7), 4 days) | LH level in blood (G10 Female 10 mg/kg sc 2/week x2 (days 1,7), 4 days) | LH level in blood (G12 Female 100 mg/kg sc 1/day x7, pre) | LH level in blood (G13 Male 100 mg/kg sc 2/week x2 (days 1,7), 5 days)
0.99 mIU/mL: LH level in blood (G13 Male 100 mg/kg sc 2/week x2 (days 1,7), 7 days)
0.21 mIU/mL: LH level in blood (G11 Male 100 mg/kg sc 1/day x7, 6 days) | LH level in blood (G11 Male 100 mg/kg sc 1/day x7, 7 days) | LH level in blood (G13 Male 100 mg/kg sc 2/week x2 (days 1,7), 8 hr) | LH level in blood (G15 Male 250 mg/kg sc 1/day x7, 6 days)
0.41 mIU/mL: LH level in blood (G6 Female 10 mg/kg sc 1/day x7, 4 hr)
0.12 mIU/mL: LH level in blood (G4 Female 5 mg/kg sc 1/day x7, pre) | LH level in blood (G6 Female 10 mg/kg sc 1/day x7, pre) | LH level in blood (G9 Male 10 mg/kg sc 2/week x2 (days 1,7), 2 days) | LH level in blood (G9 Male 10 mg/kg sc 2/week x2 (days 1,7), 3 days) | LH level in blood (G9 Male 10 mg/kg sc 2/week x2 (days 1,7), pre) | LH level in blood (G10 Female 10 mg/kg sc 2/week x2 (days 1,7), 6 days) | LH level in blood (G13 Male 100 mg/kg sc 2/week x2 (days 1,7), pre) | LH level in blood (G14 Female 100 mg/kg sc 2/week x2 (days 1,7), 5 days) | LH level in blood (G14 Female 100 mg/kg sc 2/week x2 (days 1,7), pre) | LH level in blood (G15 Male 250 mg/kg sc 1/day x7, pre)
0.27 mIU/mL: LH level in blood (G12 Female 100 mg/kg sc 1/day x7, 7 days)
0.29 mIU/mL: LH level in blood (G15 Male 250 mg/kg sc 1/day x7, 8 hr)
0.18 mIU/mL: LH level in blood (G11 Male 100 mg/kg sc 1/day x7, 8 hr) | LH level in blood (G11 Male 100 mg/kg sc 1/day x7, 4 days) | LH level in blood (G14 Female 100 mg/kg sc 2/week x2 (days 1,7), 8 hr)
0.15 mIU/mL: LH level in blood (G6 Female 10 mg/kg sc 1/day x7, 4 days) | LH level in blood (G6 Female 10 mg/kg sc 1/day x7, 5 days) | LH level in blood (G8 Female 10 mg/kg sc 2/day x4, 8 hr) | LH level in blood (G8 Female 10 mg/kg sc 2/day x4, 6 days) | LH level in blood (G10 Female 10 mg/kg sc 2/week x2 (days 1,7), 5 days)
0.09 mIU/mL: LH level in blood (G14 Female 100 mg/kg sc 2/week x2 (days 1,7), 4 days)
0.44 mIU/mL: LH level in blood (G14 Female 100 mg/kg sc 2/week x2 (days 1,7), 4 hr)
1.4 mIU/mL: LH level in blood (G15 Male 250 mg/kg sc 1/day x7, 4 hr)
0.5-1.5 mIU/mL: LH level (male, 4 hrs, all groups but vehicle, before administration 0.1 mIU/mL)
1.52 mIU/mL: LH level in blood (G13 Male 100 mg/kg sc 2/week x2 (days 1,7), 4 hr)
0.26 mIU/mL: LH level in blood (G6 Female 10 mg/kg sc 1/day x7, 8 hr) | LH level in blood (G10 Female 10 mg/kg sc 2/week x2 (days 1,7), 7 days) | LH level in blood (G16 Female 250 mg/kg sc 1/day x7, 5 days)
0.17 mIU/mL: LH level in blood (G6 Female 10 mg/kg sc 1/day x7, 6 days) | LH level in blood (G8 Female 10 mg/kg sc 2/day x4, 2 days) | LH level in blood (G10 Female 10 mg/kg sc 2/week x2 (days 1,7), 2 days) | LH level in blood (G12 Female 100 mg/kg sc 1/day x7, 8 hr) | LH level in blood (G14 Female 100 mg/kg sc 2/week x2 (days 1,7), 2 days)
0.25 mIU/mL: LH level in blood (G10 Female 10 mg/kg sc 2/week x2 (days 1,7), 4 hr) | LH level in blood (G10 Female 10 mg/kg sc 2/week x2 (days 1,7), pre)
seems to stimulate the LH secretion: Effect on LH secretion (male and female)
0.14 mIU/mL: LH level in blood (G4 Female 5 mg/kg sc 1/day x7, 5 days) | LH level in blood (G4 Female 5 mg/kg sc 1/day x7, 6 days) | LH level in blood (G9 Male 10 mg/kg sc 2/week x2 (days 1,7), 8 hr) | LH level in blood (G9 Male 10 mg/kg sc 2/week x2 (days 1,7), 5 days) | LH level in blood (G10 Female 10 mg/kg sc 2/week x2 (days 1,7), 3 days) | LH level in blood (G13 Male 100 mg/kg sc 2/week x2 (days 1,7), 4 days) | LH level in blood (G14 Female 100 mg/kg sc 2/week x2 (days 1,7), 3 days)
1.16 mIU/mL: LH level in blood (G11 Male 100 mg/kg sc 1/day x7, 4 hr)
0.62 mIU/mL: LH level in blood (G9 Male 10 mg/kg sc 2/week x2 (days 1,7), 4 hr)
0.24 mIU/mL: LH level in blood (G4 Female 5 mg/kg sc 1/day x7, 8 hr)
0.57 mIU/mL: LH level in blood (G14 Female 100 mg/kg sc 2/week x2 (days 1,7), 7 days)
